These results are taken from patent US10221165B2, “Flavone based EGFR inhibitors and process for preparation thereof” (Council of Scientific and Industrial Research, priority 2015, dated 2019).

One data set concerns A549 Cell line (Lung Cancer Cell line). Description: Cell proliferation assay (MTT), in-vitro anticancer activity against A549 cell line. In kind it is cell-based. As to conditions: Homo sapiens, A549, 0.01 μM, 72 h. On the procedure:
(§1) Each cell line was plated in 96-well microtiter plates (10,000 cells per well), and serial dilutions of indicated compounds were added. At the end of the incubation period (72 h at 37° C.), cell viability was determined by a tetrazolium dye, MTT (3-(4,5-dimethylthiazol-2-yl)-2,5-diphenyl tetrazolium bromide) (Promega, USA). The formazan crystals were dissolved in DMSO, and the absorbance at 600 nm was recorded using an ELISA plate reader. IC50 values were calculated using nonlinear regression and defined as the concentration needed for a 50% reduction in absorbance of treated versus untreated control cells.
In-Vitro Anticancer Activity Against A549 Cell Line (Lung Cancer Cell Line) (Adenocarcinomic Human Alveolar Basal Epithelial Cells)
The viability is a per cent measure of how many cells are alive, often set against a control. Read a low viability as more harm to the cells. Take `Cc1cccc(C)c1Nc1nc(N)c(-c2cc(=O)c3ccc(O)cc3o2)s1` [Compound S1-M4, 2-(2-(2,6-dimethylphenylamino)-4-aminothiazol-5-yl)-7-hydroxy-4H-chromen-4-one]: the viability at 0.01 µM was 88.6%.

In the case of `Nc1nc(Nc2c(Cl)cccc2Cl)sc1-c1cc(=O)c2ccc(O)cc2o1` [Compound S1-M5, 2-(2-(2,6-dichlorophenylamino)-4-aminothiazol-5-yl)-7-hydroxy-4H-chromen-4-one], the viability at 0.01 µM stood at 98.8%.

Regarding `COc1ccc(Nc2nc(N)c(-c3cc(=O)c4ccc(O)cc4o3)s2)cc1` [Compound S1-M6, 2-(2-(4-methoxyphenylamino)-4-aminothiazol-5-yl)-7-hydroxy-4H-chromen-4-one], the viability at 0.01 µM was determined as 53.1%.

The data set is the same for the next values; noted with them: Homo sapiens, A549, 0.1 μM, 72 h.
In turn, `Cc1cccc(C)c1Nc1nc(N)c(-c2cc(=O)c3ccc(O)cc3o2)s1` [Compound S1-M4, 2-(2-(2,6-dimethylphenylamino)-4-aminothiazol-5-yl)-7-hydroxy-4H-chromen-4-one] displayed a viability at 0.1 µM of 85.8%.

`Nc1nc(Nc2c(Cl)cccc2Cl)sc1-c1cc(=O)c2ccc(O)cc2o1` [Compound S1-M5, 2-(2-(2,6-dichlorophenylamino)-4-aminothiazol-5-yl)-7-hydroxy-4H-chromen-4-one] came in with a viability at 0.1 µM of 91.6%.

For `COc1ccc(Nc2nc(N)c(-c3cc(=O)c4ccc(O)cc4o3)s2)cc1` [Compound S1-M6, 2-(2-(4-methoxyphenylamino)-4-aminothiazol-5-yl)-7-hydroxy-4H-chromen-4-one], the viability at 0.1 µM was 45.1%.

Staying with this data set, now noted: Homo sapiens, A549, 2.5 μM, 72 h.
Molecule `Cc1cccc(C)c1Nc1nc(N)c(-c2cc(=O)c3ccc(O)cc3o2)s1` [Compound S1-M4, 2-(2-(2,6-dimethylphenylamino)-4-aminothiazol-5-yl)-7-hydroxy-4H-chromen-4-one] gave a viability at 2.5 µM of 77.6%.

On to `Nc1nc(Nc2c(Cl)cccc2Cl)sc1-c1cc(=O)c2ccc(O)cc2o1` [Compound S1-M5, 2-(2-(2,6-dichlorophenylamino)-4-aminothiazol-5-yl)-7-hydroxy-4H-chromen-4-one], for which the viability at 2.5 µM was 83.9%.

As to `COc1ccc(Nc2nc(N)c(-c3cc(=O)c4ccc(O)cc4o3)s2)cc1` [Compound S1-M6, 2-(2-(4-methoxyphenylamino)-4-aminothiazol-5-yl)-7-hydroxy-4H-chromen-4-one], the viability at 2.5 µM turned out to be 36.7%.

Staying with this data set, now noted: Homo sapiens, A549, 5 μM, 72 h.
Molecule `Cc1cccc(C)c1Nc1nc(N)c(-c2cc(=O)c3ccc(O)cc3o2)s1` [Compound S1-M4, 2-(2-(2,6-dimethylphenylamino)-4-aminothiazol-5-yl)-7-hydroxy-4H-chromen-4-one] had a viability at 5 µM of 68.6%.

`Nc1nc(Nc2c(Cl)cccc2Cl)sc1-c1cc(=O)c2ccc(O)cc2o1` [Compound S1-M5, 2-(2-(2,6-dichlorophenylamino)-4-aminothiazol-5-yl)-7-hydroxy-4H-chromen-4-one] displayed a viability at 5 µM of 71.9%.

In turn, `COc1ccc(Nc2nc(N)c(-c3cc(=O)c4ccc(O)cc4o3)s2)cc1` [Compound S1-M6, 2-(2-(4-methoxyphenylamino)-4-aminothiazol-5-yl)-7-hydroxy-4H-chromen-4-one] yielded a viability at 5 µM of 27.9%.

Staying with this data set, now noted: Homo sapiens, A549, 10 μM, 72 h.
The molecule `Cc1cccc(C)c1Nc1nc(N)c(-c2cc(=O)c3ccc(O)cc3o2)s1` [Compound S1-M4, 2-(2-(2,6-dimethylphenylamino)-4-aminothiazol-5-yl)-7-hydroxy-4H-chromen-4-one] showed a viability at 10 µM of 61.6%.

Molecule `Nc1nc(Nc2c(Cl)cccc2Cl)sc1-c1cc(=O)c2ccc(O)cc2o1` [Compound S1-M5, 2-(2-(2,6-dichlorophenylamino)-4-aminothiazol-5-yl)-7-hydroxy-4H-chromen-4-one] had a viability at 10 µM of 65.9%.

Molecule `COc1ccc(Nc2nc(N)c(-c3cc(=O)c4ccc(O)cc4o3)s2)cc1` [Compound S1-M6, 2-(2-(4-methoxyphenylamino)-4-aminothiazol-5-yl)-7-hydroxy-4H-chromen-4-one] displayed a viability at 10 µM of 19.4%.

Test system in a further data set: not listed separately
Description: Log P (Table 4). Format: physicochemical. Particulars: method not stated.
The term logP denotes a log measure of how a compound divides between an organic and an aqueous phase. Consider `Cc1cccc(C)c1Nc1nc(N)c(-c2cc(=O)c3ccc(O)cc3o2)s1` [Compound S1-M4, 2-(2-(2,6-dimethylphenylamino)-4-aminothiazol-5-yl)-7-hydroxy-4H-chromen-4-one], for which the log partition coefficient (logP) was found to be 3.42.

`Nc1nc(Nc2c(Cl)cccc2Cl)sc1-c1cc(=O)c2ccc(O)cc2o1` [Compound S1-M5, 2-(2-(2,6-dichlorophenylamino)-4-aminothiazol-5-yl)-7-hydroxy-4H-chromen-4-one] came in with a logP of 3.02.

`COc1ccc(Nc2nc(N)c(-c3cc(=O)c4ccc(O)cc4o3)s2)cc1` [Compound S1-M6, 2-(2-(4-methoxyphenylamino)-4-aminothiazol-5-yl)-7-hydroxy-4H-chromen-4-one] came in with a logP of 1.92.

Test system in the next data set: not given
Experiment: not given
Conditions: not given
As usually defined, the melting point is the temperature of the solid-liquid transition. `Cc1cccc(C)c1Nc1nc(N)c(-c2cc(=O)c3ccc(O)cc3o2)s1` [Compound S1-M4, 2-(2-(2,6-dimethylphenylamino)-4-aminothiazol-5-yl)-7-hydroxy-4H-chromen-4-one] returned a melting point of 224 to 226 °C.

In turn, `Nc1nc(Nc2c(Cl)cccc2Cl)sc1-c1cc(=O)c2ccc(O)cc2o1` [Compound S1-M5, 2-(2-(2,6-dichlorophenylamino)-4-aminothiazol-5-yl)-7-hydroxy-4H-chromen-4-one] showed a melting point of 260 to 262 °C.

The molecule `COc1ccc(Nc2nc(N)c(-c3cc(=O)c4ccc(O)cc4o3)s2)cc1` [Compound S1-M6, 2-(2-(4-methoxyphenylamino)-4-aminothiazol-5-yl)-7-hydroxy-4H-chromen-4-one] came in with a melting point of 220 to 222 °C.

The subject of another data set is U87MG Cell line (glioblastoma cell line). Description: Cell proliferation assay (MTT), in-vitro anticancer activity against U87MG cell line. Format: cell-based. Particulars: Homo sapiens, U-87 MG, 0.01 μM, 72 h. On the procedure: as §1
In-Vitro Anticancer Activity Against U87MG Cell Line (Glioblastoma Cell Line)
For the molecule `Cc1cccc(C)c1Nc1nc(N)c(-c2cc(=O)c3ccc(O)cc3o2)s1` [Compound S1-M4, 2-(2-(2,6-dimethylphenylamino)-4-aminothiazol-5-yl)-7-hydroxy-4H-chromen-4-one], the viability at 0.01 µM turned out to be 80.6%.

As for `Nc1nc(Nc2c(Cl)cccc2Cl)sc1-c1cc(=O)c2ccc(O)cc2o1` [Compound S1-M5, 2-(2-(2,6-dichlorophenylamino)-4-aminothiazol-5-yl)-7-hydroxy-4H-chromen-4-one], the viability at 0.01 µM was 84.8%.

For the molecule `COc1ccc(Nc2nc(N)c(-c3cc(=O)c4ccc(O)cc4o3)s2)cc1` [Compound S1-M6, 2-(2-(4-methoxyphenylamino)-4-aminothiazol-5-yl)-7-hydroxy-4H-chromen-4-one], the viability at 0.01 µM was 48.7%.

The data set is the same for the next values; noted with them: Homo sapiens, U-87 MG, 0.1 μM, 72 h.
`Cc1cccc(C)c1Nc1nc(N)c(-c2cc(=O)c3ccc(O)cc3o2)s1` [Compound S1-M4, 2-(2-(2,6-dimethylphenylamino)-4-aminothiazol-5-yl)-7-hydroxy-4H-chromen-4-one] had a viability at 0.1 µM of 71.8%.

`Nc1nc(Nc2c(Cl)cccc2Cl)sc1-c1cc(=O)c2ccc(O)cc2o1` [Compound S1-M5, 2-(2-(2,6-dichlorophenylamino)-4-aminothiazol-5-yl)-7-hydroxy-4H-chromen-4-one] displayed a viability at 0.1 µM of 77.6%.

Take `COc1ccc(Nc2nc(N)c(-c3cc(=O)c4ccc(O)cc4o3)s2)cc1` [Compound S1-M6, 2-(2-(4-methoxyphenylamino)-4-aminothiazol-5-yl)-7-hydroxy-4H-chromen-4-one]: the viability at 0.1 µM was 35.2%.

Staying with this data set, now noted: Homo sapiens, U-87 MG, 2.5 μM, 72 h.
Consider `Cc1cccc(C)c1Nc1nc(N)c(-c2cc(=O)c3ccc(O)cc3o2)s1` [Compound S1-M4, 2-(2-(2,6-dimethylphenylamino)-4-aminothiazol-5-yl)-7-hydroxy-4H-chromen-4-one], for which the viability at 2.5 µM was 65.6%.

Regarding `Nc1nc(Nc2c(Cl)cccc2Cl)sc1-c1cc(=O)c2ccc(O)cc2o1` [Compound S1-M5, 2-(2-(2,6-dichlorophenylamino)-4-aminothiazol-5-yl)-7-hydroxy-4H-chromen-4-one], the viability at 2.5 µM is 69.9%.

As for `COc1ccc(Nc2nc(N)c(-c3cc(=O)c4ccc(O)cc4o3)s2)cc1` [Compound S1-M6, 2-(2-(4-methoxyphenylamino)-4-aminothiazol-5-yl)-7-hydroxy-4H-chromen-4-one], the viability at 2.5 µM came to 25.8%.

Staying with this data set, now noted: Homo sapiens, U-87 MG, 5 μM, 72 h.
In the case of `Cc1cccc(C)c1Nc1nc(N)c(-c2cc(=O)c3ccc(O)cc3o2)s1` [Compound S1-M4, 2-(2-(2,6-dimethylphenylamino)-4-aminothiazol-5-yl)-7-hydroxy-4H-chromen-4-one], the viability at 5 µM was 58.6%.

In turn, `Nc1nc(Nc2c(Cl)cccc2Cl)sc1-c1cc(=O)c2ccc(O)cc2o1` [Compound S1-M5, 2-(2-(2,6-dichlorophenylamino)-4-aminothiazol-5-yl)-7-hydroxy-4H-chromen-4-one] registered a viability at 5 µM of 60.9%.

Molecule `COc1ccc(Nc2nc(N)c(-c3cc(=O)c4ccc(O)cc4o3)s2)cc1` [Compound S1-M6, 2-(2-(4-methoxyphenylamino)-4-aminothiazol-5-yl)-7-hydroxy-4H-chromen-4-one] gave a viability at 5 µM of 19.9%.

The same data set, now with this note: Homo sapiens, U-87 MG, 10 μM, 72 h.
Turning to `Cc1cccc(C)c1Nc1nc(N)c(-c2cc(=O)c3ccc(O)cc3o2)s1` [Compound S1-M4, 2-(2-(2,6-dimethylphenylamino)-4-aminothiazol-5-yl)-7-hydroxy-4H-chromen-4-one], the viability at 10 µM was found to be 50.6%.

With `Nc1nc(Nc2c(Cl)cccc2Cl)sc1-c1cc(=O)c2ccc(O)cc2o1` [Compound S1-M5, 2-(2-(2,6-dichlorophenylamino)-4-aminothiazol-5-yl)-7-hydroxy-4H-chromen-4-one], the viability at 10 µM was 52.9%.

For `COc1ccc(Nc2nc(N)c(-c3cc(=O)c4ccc(O)cc4o3)s2)cc1` [Compound S1-M6, 2-(2-(4-methoxyphenylamino)-4-aminothiazol-5-yl)-7-hydroxy-4H-chromen-4-one], the viability at 10 µM was determined as 12.9%.
